Laboratory results as given in patent publication US8338472B2, “Hexahydrocyclopentyl[F]indazole carboxamides and derivatives thereof as selective glucocorticoid receptor modulators” (Merck Sharp & Dohme Corp., priority 2008, dated 2012).
Read-outs that look alike come from different tables or passages of the source.

What was measured:
[1] = molecular target: T1, glucocorticoid receptor (GR) (Homo sapiens, UniProt P04150); test: Ligand binding assay (GR BIND), 3H-dexamethasone displacement in MDA-MB-453 cell lysate; details: GR BIND Ki, Table 1
T1 sequence (P04150 1-777): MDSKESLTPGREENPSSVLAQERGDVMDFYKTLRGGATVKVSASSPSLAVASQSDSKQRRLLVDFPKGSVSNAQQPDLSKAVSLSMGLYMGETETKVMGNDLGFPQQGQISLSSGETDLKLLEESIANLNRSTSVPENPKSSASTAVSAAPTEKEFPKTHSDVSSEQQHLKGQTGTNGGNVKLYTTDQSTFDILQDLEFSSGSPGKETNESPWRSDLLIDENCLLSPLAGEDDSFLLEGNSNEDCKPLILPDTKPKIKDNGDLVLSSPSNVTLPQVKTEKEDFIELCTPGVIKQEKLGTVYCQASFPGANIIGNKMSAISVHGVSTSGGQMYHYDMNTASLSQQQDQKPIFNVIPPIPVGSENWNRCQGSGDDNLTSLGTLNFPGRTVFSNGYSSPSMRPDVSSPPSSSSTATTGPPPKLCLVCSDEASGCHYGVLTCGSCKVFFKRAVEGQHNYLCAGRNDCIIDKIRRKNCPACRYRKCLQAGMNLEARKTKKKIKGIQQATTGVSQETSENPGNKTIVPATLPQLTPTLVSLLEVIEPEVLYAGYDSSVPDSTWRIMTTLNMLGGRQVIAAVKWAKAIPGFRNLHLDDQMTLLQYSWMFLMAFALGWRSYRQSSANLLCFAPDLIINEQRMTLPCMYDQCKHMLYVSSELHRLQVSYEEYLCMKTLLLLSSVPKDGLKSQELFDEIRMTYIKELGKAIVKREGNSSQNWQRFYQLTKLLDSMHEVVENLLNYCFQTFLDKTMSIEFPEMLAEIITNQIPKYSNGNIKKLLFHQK

Glucocorticoid Receptor = molecular target: T2, Glucocorticoid Receptor (Homo sapiens, UniProt P04150); test: Trans-Activation Modulation of Glucocorticoid Receptor (GRAMMER), MMTV-LUC reporter gene in A549 cells; assay type: cell-based; details: Table 1; for Emax: A549, A549 cells, read-out: Transactivation A549 Cells GRAMMER Emax; for EC50: inflection point, read-out: Transactivation A549 Cells GRAMMER IP
T2 construct: These cells express large amount of the GR and are very responsive to GC treatment; endogenous in cells; host or cells: A549 cells transiently transfected with the MMTV-LUC reporter
T2 sequence (P04150 1-777): T1 sequence (P04150 1-777)
Description: Trans-Activation Modulation of Glucocorticoid Receptor (GRAMMER)
This assay assesses the ability of test compounds to control transcription from the MMTV-LUC reporter gene in lung adenocarcinoma A549 cells or MDA-MB-453 cells, a human breast cancer cell line that naturally expresses the human GR. The assay measures induction of a modified MMTV LTR/promoter linked to the LUC reporter gene.
The routine transient assay consists of plating 7,000-25,000 cells/well of a white, clear-bottom 96-well plate. Alternatively, 384-well plates can be used at a cell concentration of 10,000/well. The media that the cells are plated in is “exponential growth medium” which consists of phenol red-free RPMI1640 containing 10% FBS, 4 mM L-glutamine, 20 mM HEPES, 10 ug/mL human insulin, and 20 ug/mL gentamicin. Incubator conditions are 37° C. and 5% CO2. The transfection is done in batch mode. The cells are trypsinized and counted to the right cell number in the proper amount of fresh media. It is then gently mixed with the FuGene6/DNA mix and plated onto the 96 or 384-well plate, all the wells receive 100 uL or 40 uL, respectively, of medium+lipid/DNA complex then incubated 37° C. overnight. The transfection cocktail consists of serum-free OptiMEM, FuGene6 reagent and DNA. The manufacturer's (Roche Biochemical) protocol for cocktail setup is as follows: The lipid to DNA ratio is approximately 2.5:1 and the incubation time is 20 min at room temperature. Sixteen to 24 hours after transfection, the cells are treated with dexamethasone to a final concentration of 10 nM as well as the compound of interest, such that final DMSO (vehicle) concentration is equal to or less than 1%. Each plate also contains samples that are treated with 10 nM dexamethasone alone, which is used as the 100% activity control. The cells are exposed to the compounds for 24 hours. After 24 hours, the cells are lysed by a Promega cell culture lysis buffer for approximately 30 min and then the luciferase activity in the extracts is assayed in the 96-well format luminometer. In 384-well format, Steady-Glo (Promega) or Steady-Lite (PerkinElmer) can be used by adding an equal volume of reagent to the media present in each well. Activity induced by 10 nM dexamethasone alone is set at 100% activity. Antagonist activity is calculated by determining the decrease in dexamethasone-induced activity in response to compound treatment relative to samples that were treated with dexamethasone alone. […] This transactivation assay can be performed in an agonist and antagonist mode to identify these different activities.
Activity of test compounds is calculated as the Emax relative to the activity obtained with 300 nM dexamethasone. Activity of test compounds is calculated as the Emax relative to the activity obtained with 300 nM DEX. […] The action of compounds is also tested in an antagonist mode (Anti-GRAMMER) in which the cells are treated with medium containing an agonist such as 10 nM DEX and the ability to agents to inhibit the activation by an agonist is measured.

human GR = molecular target: T3, human GR (Homo sapiens, UniProt P04150); test: Transrepression Assay (GITAR), TNFα-β-lactamase reporter gene in U937 cells; assay type: cell-based; details: for GITAR Greater than by GRAMMER % SEP: GITAR Emax minus GRAMMER Emax; for EC50: inflection point, read-out: Transrepression U937 Cells GITAR IP
T3 construct: U937 cells contain an endogenous glucocorticoid receptor (GR); endogenous in cells; host or cells: U937 cells stably transfected with the TNF-alpha promoter/beta-lactamase reporter
T3 sequence (P04150 1-777): T1 sequence (P04150 1-777)
Description: Transrepression Assay (GITAR)
This assay assesses the ability of test compounds to control transcription from the TNFα-β-lactamase reporter gene in U937 cells, a human myelomonocytic leukemia cell line that naturally expresses the human GR. The assay measures compound dependent-repression of the TNFa promoter linked to a reporter gene.
The human U937 cells that had been stablely transfected with the TNF-α promoter driving β-lactamase are used for this assay. U937 cells contain an endogenous glucocorticoid receptor (GR). Cells are maintained in RPMI 1640 Growth medium (Gibco Cat#11875-093) containing 25 mM HEPES, 10% FBS, 2 mM L-Glutamine, 1 mM Sodium pyruvate, 25 μg/ml Gentamicin (Gibco Cat#15710-064), 1:1000 2-Mercaptoethanol (Gibco Cat#21985-023) and 0.8 mg/ml G418 (Gibco Cat#10131-027). The density of the cells in the flask needs to be about 1×10^6−3×10^6/ml at the time of harvest. Usually, the cells are split to 1.2˜1.4×10^5/ml (1:10) 3 days prior to the assay. 50,000 cells/well are plated in 96 well black-walled plates the day of assay. Test compounds are added 10 pt/well, and cells are incubated at 37° C. for 30-45 min. For assaying compounds, first dilute 1:10 in DMSO to make 1 mM, then further dilute 1:100 in medium to make 10× stock prior to adding to the cells. Add 50 ng/ml PMA (Sigma, cat# P8139) 10 μL/well to a final concentration 5 ng/ml, and 1 μg/ml LPS (Sigma, cat# L4130) 10 μL/well to a final concentration 100 ng/ml. Incubate cells at 37° C. overnight for ˜18 hr. PMA is stored frozen as 100 μg/ml stock in DMSO. Dilute 1:10 in DMSO for a working stock of 10 μg/ml and store at −20C. For assaying, dilute the […] working stock 1:200 in medium to make a 10× solution (50 ng/ml). Store frozen LPS at 1 mg/ml in PBS, dilute 1:1000 in medium to make 10× (1 μg/ml) for the assay. Add 6× loading buffer (CCF2−AM) 20 μL/well, and incubate at room temperature for 70-90 min. […] The activity repressed by 100 nM dexamethasone alone is set as 100% activity.

[2] = Emax relative to 300 nM dexamethasone
[3] = U-937, U937 cells, activity repressed by 100 nM dexamethasone = 100%, Table 1, read-out: Transrepression U937 Cells GITAR Emax
[4] = U-937, text statement, 100 nM dexamethasone = 100%, read-out: maximal activity in the transrepression assay (GITAR)

Ki [1] [nM]	Emax (Glucocorticoid Receptor; [2]) [%]	EC50 (Glucocorticoid Receptor; A549 cells) [nM]	GITAR Greater than by GRAMMER % SEP (human GR; Table 1) [%]	Emax (human GR; [3]) [%]	Emax (human GR; [4]) [%]	EC50 (human GR; U937 cells, Table 1) [nM]	Transactivation A549 Cells GRAMMER Emax (Glucocorticoid Receptor; A549 cells, Emax relative to 300 nM dexamethasone) [%]	Transrepression U937 Cells GITAR Emax (human GR; U937 cells, activity repressed by 100 nM dexamethasone = 100%, Table 1) [%]	Compound
4.5	44.5	312	30.6	75.1	> 5	333	–	–	CCN(CCC(F)(F)F)C(=O)[C@H]1CCC2=Cc3c(cnn3-c3ccc(F)cc3)C[C@@]21C [Compound 91, (4αR,5S)-N-ethyl-1-(4-fluorophenyl)-4α-methyl-N-(3,3,3-trifluoropropyl)-1,4,4α,5,6,7-hexahydrocyclopenta[f]indazole-5-carboxamide]
14.7	31.8	2650	30.8	62.6	> 5	945	–	–	C[C@]12Cc3cnn(-c4ccc(F)cc4)c3C=C1CC[C@@H]2C(=O)N(CCO)CCc1ccccc1 [Compound 35, (4αR,5S)-1-(4-fluorophenyl)-N-(2-hydroxyethyl)-4α-methyl-N-(2-phenylethyl)-1,4,4α,5,6,7-hexahydrocyclopenta[f]indazole-5-carboxamide]
9	3.4	1460	16.9	20.3	> 5	226	–	–	COc1ccccc1CN(C)C(=O)[C@H]1CCC2=Cc3c(cnn3-c3ccc(F)cc3)C[C@@]21C [Compound 50, (4αR,5S)-1-{4-fluorophenyl)-N-(2-methoxybenzyl)-N,4α-dimethyl-hexahydrocyclopenta[f]indazole-5-carboxamide]
49.8	1.5	5000	19.5	21	> 5	385	–	–	COC[C@H]1CCCN1C(=O)[C@H]1CCC2=Cc3c(cnn3-c3ccc(F)cc3)C[C@@]21C [Compound 43, (4αR,5S)-1-(4-fluorophenyl)-5-{[(2R)-2-(methoxymethyl)pyrrolidin-1-yl]carbonyl}-4α-methyl-1,4,4α,5,6,7-hexahydrocyclopenta[f]indazole]
2.5	19.2	909	2.3	21.5	> 5	1000	–	–	CCCN(CC)C(=O)[C@H]1CCC2=Cc3c(cnn3-c3ccc(F)cc3)C[C@@]21C [Compound 4, (4αR,5S)-N-ethyl-1-(4-fluorophenyl)-4α-methyl-N-propyl-1,4,4α,5,6,7-hexahydrocyclopenta[f]indazole-5-carboxamide]

The next lines start with the compound.

Compound	Ki [1] [nM]	Emax (Glucocorticoid Receptor; [2]) [%]	EC50 (Glucocorticoid Receptor; A549 cells) [nM]	GITAR Greater than by GRAMMER % SEP (human GR; Table 1) [%]	Emax (human GR; [3]) [%]	Emax (human GR; [4]) [%]	EC50 (human GR; U937 cells, Table 1) [nM]	Transactivation A549 Cells GRAMMER Emax (Glucocorticoid Receptor; A549 cells, Emax relative to 300 nM dexamethasone) [%]	Transrepression U937 Cells GITAR Emax (human GR; U937 cells, activity repressed by 100 nM dexamethasone = 100%, Table 1) [%]
C[C@]12Cc3cnn(-c4ccccc4)c3C=C1CC[C@@H]2C(=O)N(CC1CC1)CC(O)C(F)(F)F (stereo partly drawn) [Compound 81, (4αR,5S)-N-(cyclopropylmethyl)-4α-methyl-1-phenyl-N-(3,3,3-trifluoro-2-hydroxypropyl)-1,4,4α,5,6,7-hexahydrocyclopenta[f]indazole-5-carboxamide]	3.6	67.8	293	7.8	75.6	> 5	337	–	–
CCCCN(CC(O)C(F)(F)F)C(=O)[C@H]1CCC2=Cc3c(cnn3-c3ccccc3)C[C@@]21C (stereo partly drawn) [Compound 79, (4αR,5S)-N-butyl-4α-methyl-1-phenyl-N-(3,3,3-trifluoro-2-hydroxypropyl)-1,4,4α,5,6,7-hexahydrocyclopenta[f]indazole-5-carboxamide]	3.8	70.7	180	17.6	88.3	> 5	163	–	–
CCCN(CC1CCCO1)C(=O)[C@H]1CCC2=Cc3c(cnn3-c3ccc(F)cc3)C[C@@]21C (stereo partly drawn) [Compound 63, (4αR,5S)-1-(4-fluorophenyl)-4α-methyl-N-propyl-N-(tetrahydrofuran-2-ylmethyl)-1,4,4α,5,6,7-hexahydrocyclopenta[f]indazole-5-carboxamide]	6	–	725	17.6	–	–	713	28.3	45.9
C[C@]12Cc3cnn(-c4ccc(F)cc4)c3C=C1CC[C@@H]2C(=O)N(CCO)Cc1cc(F)c(F)c(F)c1 [Compound 28, (4αR,5S)-1-(4-fluorophenyl)-N-(2-hydroxyethyl)-4α-methyl-N-(3,4,5-trifluorobenzyl)-1,4,4α,5,6,7-hexahydrocyclopenta[f] indazole-5-carboxamide]	8.9	10.6	1220	45.4	56	> 5	1290	–	–
